According to ChEMBL document CHEMBL5614422, “Design, synthesis and biological evaluation of N-salicyloyl tryptamine derivatives as multifunctional neuroprotectants for the treatment of ischemic stroke” (Eur J Med Chem, 2024):
Activity calls are given as the source filed them.

What was measured:
[1] = system: HT-22; assay: Cytoprotective activity against OGD/R induced mouse HT-22 cells assessed as inhibition of intracellular LDH release at 10 uM; assay type: functional, cell-based
[2] = organism: Mus musculus; assay: Antiinflammatory activity in MCAO-R induced 12 hrs fasted male C57BL/6J mouse model assessed as reduction in TNF-alpha level by ELISA method; assay type: functional, organism-based
[3] = Antioxidant activity assessed as trolox equivalent of ORAC radical scavenging activity at 0.125 to 2 uM by AAPH based automatic microplate reader analysis; assay type: functional; conditions: dose 0.125-2 µM
[4] = system: HT-22; assay: Upregulation of GCLC protein level in OGD/R induced mouse HT-22 cells at 1 to 10 uM by Western blot analysis; assay type: functional, cell-based; conditions: dose 1-10 µM
[5] = system: HT-22; assay: Upregulation of GPX4 protein level in OGD/R induced mouse HT-22 cells at 10 uM in presence of ML385 by Western blot analysis; assay type: functional, cell-based
[6] = system: HT-22; assay: Antioxidant activity against OGD/R induced oxidative stress in mouse HT-22 cells assessed as reduction in ROS release level at 1 to 10 uM by DCFH-DA staining based flow cytometry analysis; assay type: functional, cell-based; conditions: dose 1-10 µM
[7] = biological target: Phospholipid hydroperoxide glutathione peroxidase GPX4 (Mus musculus) (UniProt O70325); assay: In vivo activation of Nrf2 pathway in MCAO-R induced 12 hrs fasted male C57BL/6J mouse model assessed as increase in GPX4 expression level at 10 to 50 mg/kg, ip by Western blot analysis; assay type: functional, organism-based; conditions: dose 10-50 mg/kg
Phospholipid hydroperoxide glutathione peroxidase GPX4 (Mus musculus), sequence (O70325 whole entry): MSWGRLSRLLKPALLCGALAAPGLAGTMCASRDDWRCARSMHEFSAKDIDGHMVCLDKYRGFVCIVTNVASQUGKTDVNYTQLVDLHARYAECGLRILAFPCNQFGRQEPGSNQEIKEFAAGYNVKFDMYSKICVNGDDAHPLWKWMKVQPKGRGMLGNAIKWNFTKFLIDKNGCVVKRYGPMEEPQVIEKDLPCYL

[8] = system: Mus musculus; assay: Neuroprotective activity against MCAO-R induced 12 hrs fasted male C57BL/6J mouse model assessed as reduction in neurologic deficit score at 10 to 50 mg/kg, ip for 7 days by […]; assay type: functional, organism-based; conditions: dose 10-50 mg/kg, time 7.0 day
[9] = system: HT-22; assay: Anti-ferroptotic activity against OGD/R induced mouse HT-22 cells increase in GSH level at 10 uM; assay type: functional, cell-based
[10] = system: HT-22; assay: Anti-ferroptotic activity against OGD/R induced mouse HT-22 cells increase in GSH level at 10 uM in presence of ML385; assay type: functional, cell-based
[11] = system: Mus musculus; assay: Neuroprotective activity against MCAO-R induced 12 hrs fasted male C57BL/6J mouse model assessed as improvement in neuronal mortality at 10 to 50 mg/kg, ip administered once a day for 7 days by H and E staining based analysis; assay type: functional, organism-based; conditions: dose 10-50 mg/kg, time 7.0 day
[12] = organism: Mus musculus; assay: Antiinflammatory activity in MCAO-R induced 12 hrs fasted male C57BL/6J mouse model assessed as reduction in IL-18 level by ELISA method; assay type: functional, organism-based
[13] = system: Mus musculus; assay: Neuroprotective activity against MCAO-R induced 12 hrs fasted male C57BL/6J mouse model assessed as increase in SOD activity in cerebral ischemic tissue at 10 to 50 mg/kg, ip administered once a day for 7 days; assay type: functional, organism-based; conditions: dose 10-50 mg/kg, time 7.0 day
[14] = system: HT-22; assay: Induction of morphological changes in OGD/R induced mouse HT-22 cells assessed as attenuation of synaptic shortening by microscopic based analysis; assay type: functional, cell-based
[15] = system: BV-2; assay: Anti-inflammatory activity against OGD/R and erastin induced ferroptosis in mouse BV-2 cells assessed as inhibition of IL-18 production preincubated for 6 hrs followed by OGD addition and measured after 1 hr by ELISA method; assay type: functional, cell-based; conditions: dose 10-40 µM, time 7.0 hrs
[16] = system: Mus musculus; assay: In vivo activation of Nrf2 pathway in MCAO-R induced 12 hrs fasted male C57BL/6J mouse model assessed as increase in GCLC expression level at 10 to 50 mg/kg, ip by Western blot analysis; assay type: functional, organism-based; conditions: dose 10-50 mg/kg
[17] = system: Mus musculus; assay: Neuroprotective activity against MCAO-R induced 12 hrs fasted male C57BL/6J mouse model assessed as reduction in neurologic deficit score administered as ip once a day for 7 days by TTC staining based analysis; assay type: functional, organism-based; conditions: time 7.0 day
[18] = system: HT-22; assay: Anti-ferroptotic activity against OGD/R induced mouse HT-22 cells decrease as in Fe2+ level at 10 uM in presence of ML385 by cell ferrous calorimetry analysis; assay type: functional, cell-based
[19] = system: Mus musculus; assay: In vivo activation of Nrf2 pathway in MCAO-R induced 12 hrs fasted male C57BL/6J mouse model assessed as increase in HO-1 expression level at 10 to 50 mg/kg, ip by Western blot analysis; assay type: functional, organism-based; conditions: dose 10-50 mg/kg
[20] = system: Mus musculus; assay: Neuroprotective activity against MCAO-R induced 12 hrs fasted male C57BL/6J mouse model assessed as reduction in infarct volume at 25 mg/kg, ip for 7 days by TTC staining based analysis; assay type: functional, organism-based; conditions: time 7.0 day
[21] = system: BV-2; assay: Anti-inflammatory activity against OGD/R and erastin induced ferroptosis in mouse BV-2 cells assessed as inhibition of IL-6 production preincubated for 6 hrs followed by OGD addition and measured after 1 hr by ELISA method; assay type: functional, cell-based; conditions: dose 10-40 µM, time 7.0 hrs
[22] = system: HT-22; assay: Anti-ferroptotic activity in mouse HT-22 cells assessed as prevention of erastin-induced cell death at 1 to 10 uM by MTT assay; assay type: functional, cell-based; conditions: dose 1-10 µM
[23] = system: HT-22; assay: Antioxidant activity against OGD/R induced oxidative stress in mouse HT-22 cells assessed as increase in SOD activity by absorbance based automatic microplate reader analysis; assay type: functional, cell-based
[24] = system: HT-22; assay: Antioxidant activity against OGD/R induced damage in mouse HT-22 cells assessed as decrease in proportion of mitochondrial depolarized cells by JC-1 fluorescence based flow cytometry analysis; assay type: functional, cell-based; conditions: dose 1-10 µM
[25] = system: Mus musculus; assay: Neuroprotective activity against MCAO-R induced 12 hrs fasted male C57BL/6J mouse model assessed as decrease in S100 expression in cortex by measuring decrease in fluorescence intensity administered once a day as ip dose for 7 days by immunofluorescence method; assay type: functional, organism-based; conditions: dose 10-50 mg/kg, time 7.0 day
[26] = system: HT-22; assay: Upregulation of NQO1 protein level in OGD/R induced mouse HT-22 cells at 1 to 10 uM by Western blot analysis; assay type: functional, cell-based; conditions: dose 1-10 µM
[27] = system: Mus musculus; assay: Neuroprotective activity against MCAO-R induced 12 hrs fasted male C57BL/6J mouse model assessed as decrease in S100 expression in CA3 by measuring decrease in fluorescence intensity administered once a day as ip dose for 7 days by immunofluorescence method; assay type: functional, organism-based; conditions: dose 10-50 mg/kg, time 7.0 day

Measured: Activity

Cc1ccc(C(=O)NCCc2c[nH]c3ccc(N(C)C)cc23)c(O)c1
5.2: [3]
active: [1] | [2] | [4] | [6] | [7] | [8] | [9] | [11] | [12] | [13] | [14] | [15] Dose-Dependent Effect | [16] | [17] Dose-Dependent Effect | [19] | [20] | [21] Dose-Dependent Effect | [22] | [23] | [24] Dose-Dependent Effect | [25] Dose-Dependent Effect | [26] | [27] Dose-Dependent Effect
inactive: [5] | [10] | [18]
